Where two headings read alike, the source gives them in different places.
Columns and labels:
[1] = biological target: T1, K103N/Y181C double mutant RT (HIV-1 RT) (Human immunodeficiency virus type 1 group M subtype B, UniProt P03366, K702N/Y780C); experiment: biochemical
T1 construct: mutations that occur in the reverse transcriptase segment of the pol gene
Excerpt: (§1) Based upon testing of these compounds, as described below, it is known that they inhibit the RNA-dependent DNA polymerase activity of HIV-1 RT. […] Utilising the Reverse Transcriptase (RT) Assay described below, compounds can be tested for their ability to inhibit the RNA-dependent DNA polymerase activity of HIV-1 RT. Certain specific compounds described in the Examples which appear below, were so tested. The results of this testing appear in Table 4 as IC50 (nM) and Table 5 as EC50 (nM).
(§2) Reverse TranscriptASE (RT) Assays
(§3) The assays are as described in WO 01/96338A1, the contents of which are hereby incorporated herein. The results are listed in Tables 8 as IC50(nM) and EC50(nM).

[2] = biological target: T2, V106A mutant RT (HIV-1 RT) (Human immunodeficiency virus type 1 group M subtype B, UniProt P03366, V705A); experiment: biochemical
T2 construct: mutations that occur in the reverse transcriptase segment of the pol gene
Excerpt: as §1, §2, §3

WT RT (HIV-1 RT) = biological target: T3, WT RT (HIV-1 RT) (Human immunodeficiency virus type 1 group M subtype B, UniProt P03366); experiment: biochemical
T3 construct: mutations that occur in the reverse transcriptase segment of the pol gene
Excerpt: as §1, §2, §3

[3] = biological target: T4, Y188L mutant RT (HIV-1 RT) (Human immunodeficiency virus type 1 group M subtype B, UniProt P03366, Y787L); experiment: biochemical
T4 construct: mutations that occur in the reverse transcriptase segment of the pol gene
Excerpt: as §1, §2, §3

[4] = system: WT RT (HIV-1 wild type strain); experiment: EC50 assay, WT RT strain; assay type: cell-based
Excerpt: as §2, §3

[5] = system: K103N/Y181C (HIV-1 double mutant strain); experiment: EC50 assay, K103N/Y181C strain; assay type: cell-based
Excerpt: as §2, §3

[6] = Human immunodeficiency virus 1, read-out: EC50 WT RT (nM)
[7] = Human immunodeficiency virus 1, read-out: EC50 K103N/Y181C (nM), K103N/Y181C double mutant

CCN1c2ncc(CCOc3ccc(CC(=O)O)c4ccccc34)cc2C(=O)N(C)c2ccc(F)nc21 [Entry 1009]
IC50 [1]: 100 to 1000 nM
IC50 ([2]; IC50 V106A (nM)): > 1000 nM
IC50 (WT RT (HIV-1 RT)): < 100 nM
IC50 ([3]; IC50 Y188L (nM)): > 1000 nM
EC50 [4, 6]: < 100 nM
EC50 [5, 7]: < 100 nM

CCN1c2ncc(CCOc3ccc(CC(=O)O)c4ccccc34)cc2C(=O)N(C)c2ccc(Cl)nc21 [Entry 1010]
IC50 [1]: 100 to 1000 nM
IC50 ([2]; IC50 V106A (nM)): > 1000 nM
IC50 (WT RT (HIV-1 RT)): < 100 nM
IC50 ([3]; IC50 Y188L (nM)): > 1000 nM
EC50 [4, 6]: < 100 nM
EC50 [5, 7]: < 100 nM

CCN1c2ncc(CCOc3ccc(CC(=O)O)c4ccccc34)cc2C(=O)Nc2c(C)cc(Cl)nc21 [Entry 1012]
IC50 [1]: 100 to 1000 nM
IC50 ([2]; IC50 V106A (nM)): 100 to 1000 nM
IC50 (WT RT (HIV-1 RT)): < 100 nM
IC50 ([3]; IC50 Y188L (nM)): > 1000 nM
EC50 [4, 6]: < 100 nM
EC50 [5, 7]: 100 to 1000 nM

CCN1c2ncc(CCOc3ccc(CC(=O)NN)c4ccccc34)cc2C(=O)N(C)c2cccnc21 [Entry 1015]
IC50 [1]: < 100 nM
IC50 ([2]; IC50 V106A (nM)): 100 to 1000 nM
IC50 (WT RT (HIV-1 RT)): < 100 nM
IC50 ([3]; IC50 Y188L (nM)): 100 to 1000 nM
EC50 [4, 6]: < 100 nM
EC50 [5, 7]: < 100 nM

CCN1c2ncc(CCOc3ccc(CC(=O)NN)c4ccccc34)cc2C(=O)N(C)c2ccc(Cl)nc21 [Entry 1016]
IC50 [1]: < 100 nM
IC50 ([2]; IC50 V106A (nM)): 100 to 1000 nM
IC50 (WT RT (HIV-1 RT)): < 100 nM
IC50 ([3]; IC50 Y188L (nM)): 100 to 1000 nM
EC50 [4, 6]: < 100 nM
EC50 [5, 7]: < 100 nM

CCN1c2ncc(CCOc3ccc(CC(=O)NS(C)(=O)=O)c4ccccc34)cc2C(=O)N(C)c2cccnc21 [Entry 1019]
IC50 ([1]; K103N/Y181C double mutant RT, read-out: IC50 K103N/Y181C): 100 to 1000 nM
IC50 ([2]; read-out: IC50 V106A): > 1000 nM
IC50 (WT RT (HIV-1 RT); wild type RT, read-out: IC50 WT RT): < 100 nM
IC50 ([3]; read-out: IC50 Y188L): > 1000 nM
EC50 ([4]; wild type, read-out: EC50 WT RT): < 100 nM
EC50 ([5]; K103N/Y181C double mutant, read-out: EC50 K103N/Y181C): 100 to 1000 nM

CCN1c2ncc(CCOc3ccc(C(C)C(=O)O)c4ccccc34)cc2C(=O)N(C)c2cccnc21 (stereo not drawn) [Entry 1020]
IC50 [1]: 100 to 1000 nM
IC50 ([2]; IC50 V106A (nM)): > 1000 nM
IC50 (WT RT (HIV-1 RT)): < 100 nM
IC50 ([3]; IC50 Y188L (nM)): > 1000 nM
EC50 [4, 6]: < 100 nM
EC50 [5, 7]: < 100 nM

CCN1c2ncc(CCOc3ccc(CCC(=O)O)c4ccccc34)cc2C(=O)N(C)c2cccnc21 [Entry 1021]
IC50 [1]: 100 to 1000 nM
IC50 ([2]; IC50 V106A (nM)): > 1000 nM
IC50 (WT RT (HIV-1 RT)): < 100 nM
IC50 ([3]; IC50 Y188L (nM)): > 1000 nM
EC50 [4, 6]: < 100 nM
EC50 [5, 7]: < 100 nM

CCN1c2ncc(CCOc3ccc(CCC(=O)O)c4ccccc34)cc2C(=O)N(C)c2ccc(Cl)nc21 [Entry 1022]
IC50 [1]: 100 to 1000 nM
IC50 ([2]; IC50 V106A (nM)): 100 to 1000 nM
IC50 (WT RT (HIV-1 RT)): < 100 nM
IC50 ([3]; IC50 Y188L (nM)): > 1000 nM
EC50 [4, 6]: < 100 nM
EC50 [5, 7]: < 100 nM

CCN1c2ncc(CCOc3ccc(CCC(=O)O)c4ccccc34)cc2C(=O)N(C)c2ccc(F)nc21 [Entry 1023]
IC50 [1]: 100 to 1000 nM
IC50 ([2]; IC50 V106A (nM)): > 1000 nM
IC50 (WT RT (HIV-1 RT)): < 100 nM
IC50 ([3]; IC50 Y188L (nM)): > 1000 nM
EC50 [4, 6]: < 100 nM
EC50 [5, 7]: < 100 nM

CCN1c2ncc(CCOc3ccc(CCC(=O)O)c4ccccc34)cc2C(=O)Nc2c(C)cc(Cl)nc21 [Entry 1025]
IC50 [1]: 100 to 1000 nM
IC50 ([2]; IC50 V106A (nM)): 100 to 1000 nM
IC50 (WT RT (HIV-1 RT)): < 100 nM
IC50 ([3]; IC50 Y188L (nM)): > 1000 nM
EC50 [4, 6]: < 100 nM
EC50 [5, 7]: 100 to 1000 nM

CCN1c2ncc(CCOc3ccc(/C=C/C(=O)O)c4ccccc34)cc2C(=O)N(C)c2cccnc21 [Entry 1028]
IC50 [1]: 100 to 1000 nM
IC50 ([2]; IC50 V106A (nM)): > 1000 nM
IC50 (WT RT (HIV-1 RT)): < 100 nM
IC50 ([3]; IC50 Y188L (nM)): 100 to 1000 nM
EC50 [4, 6]: < 100 nM
EC50 [5, 7]: < 100 nM

CCN1c2ncc(CCOc3ccc(/C=C/C(=O)O)c4ccccc34)cc2C(=O)N(C)c2ccc(Cl)nc21 [Entry 1029]
IC50 [1]: 100 to 1000 nM
IC50 ([2]; IC50 V106A (nM)): 100 to 1000 nM
IC50 (WT RT (HIV-1 RT)): < 100 nM
IC50 ([3]; IC50 Y188L (nM)): 100 to 1000 nM
EC50 [4, 6]: < 100 nM
EC50 [5, 7]: < 100 nM

CCN1c2ncc(CCOc3ccc(/C=C/C(=O)O)c4ccccc34)cc2C(=O)Nc2c(C)cc(Cl)nc21 [Entry 1030]
IC50 [1]: 100 to 1000 nM
IC50 ([2]; IC50 V106A (nM)): < 100 nM
IC50 (WT RT (HIV-1 RT)): < 100 nM
IC50 ([3]; IC50 Y188L (nM)): > 1000 nM
EC50 [4, 6]: < 100 nM
EC50 [5, 7]: < 100 nM

CCN1c2ncc(CCOc3ccc(/C=C/C(=O)O)c4ccccc34)cc2C(=O)Nc2c(C)ccnc21 [Entry 1031]
IC50 [1]: 100 to 1000 nM
IC50 ([2]; IC50 V106A (nM)): 100 to 1000 nM
IC50 (WT RT (HIV-1 RT)): < 100 nM
IC50 ([3]; IC50 Y188L (nM)): > 1000 nM
EC50 [4, 6]: < 100 nM
EC50 [5, 7]: < 100 nM

CCN1c2ncc(CCOc3ccc(/C=C/C(=O)O)c4ccccc34)cc2C(=O)N(C)c2ccc(F)nc21 [Entry 1032]
IC50 [1]: 100 to 1000 nM
IC50 ([2]; IC50 V106A (nM)): 100 to 1000 nM
IC50 (WT RT (HIV-1 RT)): < 100 nM
IC50 ([3]; IC50 Y188L (nM)): 100 to 1000 nM
EC50 [4, 6]: < 100 nM
EC50 [5, 7]: < 100 nM
